Patent publication US20210323918A1, “COMPOSITIONS AND METHODS FOR SUPPRESSING AND/OR TREATING A GROWTH RELATED DISEASE AND/OR A CLINICAL CONDITION THEREOF” (CK Biotech Inc., priority 2018, published 2021)

Molecular target: T1, CXXC5-DVL interaction (Homo sapiens, UniProt O14640)
T1 construct: 5 mg/ml purified DVL PDZ domain was incubated in each well
T1 sequence (O14640 251-323 limits assumed): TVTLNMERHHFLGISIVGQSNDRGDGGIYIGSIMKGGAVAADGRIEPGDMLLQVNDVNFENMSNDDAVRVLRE
Assay: In vitro CXXC5-DVL binding assay (FITC-tagged PTD-DBMP on DVL PDZ domain)
Conditions: compound 30 μM; fluorescent intensity normalized to DMSO-treated control; read-out: CXXC5-DVL interaction (%)
Method: Screening for compounds that inhibit the CXXC5-DVL interaction. […] Briefly, 5 mg/ml purified DVL PDZ domain was incubated in each well of a 96-well Maxibinding Immunoplate (SPL) at 4° C. for 16 hours. After the addition of 10 μM FITC-tagged PTD-DBMP to each well, each compound in the chemical library or control (DMSO) was treated to the well at a final concentration of 30 μM. The fluorescence intensity was measured using a Fluorstar Optima microplate reader (BGM Lab Technologies, Ortenberg, Germany). The binding values were calculated as a percent ratio of the fluorescent intensity normalized to the DMSO-treated control.

Structure (SMILES) | remaining activity at 30 µM [%]
CCN(CC)S(=O)(=O)c1ccc(OC)c(Nc2cc(-c3ccccc3)nc(C)n2)c1 [Compound 6] | 7.63
Cc1cc(C)c2c(O)nc(SCC(=O)c3ccc(O)c(O)c3)nc2n1 [Compound 3] | 4.01
COC(=O)C1=C(C)N/C(=C/c2cc(C)n(-c3ccccc3F)c2C)C1=O [Compound 4] | 4.76
CN1CCc2cc(O)cc3c2[C@H]1Cc1ccc(O)c(O)c1-3 [Compound 9] | 2.5
O=C1Nc2ccccc2/C1=C1/Nc2ccccc2/C1=N\O [Compound 12, indirubin-3′-oxime, reference compound] | 7.65
O=c1cc(O)cc(/C=C/c2ccc(O)c(O)c2)o1 [Compound 11] | 1.73

Results, then the molecule that gave them:

remaining activity at 30 µM [%] | Structure (SMILES)
7.61 | Oc1cc(O)cc(/C=C/c2ccc(O)c(O)c2)c1 [Compound 17]
1.19 | O=C(O)C1Sc2[nH]c(=O)sc2C2c3cc(Br)cc(Br)c3OC(=O)C12 (centres unmarked) [Compound 5]
7.62 | COc1ccc(C)cc1/N=N/c1ccc(O)c2nc(/C=N/O)ccc12 [Compound 1]
1.01 | COc1ccc(C2CC(C(F)(F)F)n3ncc(C(=O)O)c3N2)cc1OC (centres unmarked) [Compound 2]
0.72 | COc1ccc(C2CC(=O)C3=C(C2)Nc2onc(C)c2C3c2ccc(O)c(O)c2)cc1OC (centres unmarked) [Compound 7]
7.66 | O=c1c(O)c(-c2cc(O)c(O)c(O)c2)oc2cc(O)cc(O)c12 [Compound 13]
7.65 | CC(N)(Cc1ccc(O)c(O)c1)C(=O)O (centres unmarked) [Compound 14]
5.7 | O=C(OCCN1CCOCC1)C1(c2ccccc2)CCCCC1 [Compound 18]
7.43 | O=c1c(O)c(-c2ccc(O)cc2O)oc2cc(O)cc(O)c12 [Compound 15]

Same assay, conditions: read-out: CXXC5-DVL interaction (%)

Structure (SMILES) | remaining activity at 30 µM [%]
NC(Cc1cc(O)c(O)cc1O)C(=O)O (centres unmarked) [Compound 10] | 1.39
CN(C)c1ccc(O)c2c1C[C@H]1C[C@H]3[C@H](N(C)C)C(O)=C(C(N)=O)C(=O)[C@@]3(O)C(O)=C1C2=O [Compound 16] | 4.37
